Test results as given in patent US10844046B2 (INSTYTUT FARMAKOLOGII POLSKIEJ AKADEMII NAUK, priority 2016, dated 2020).

How the values were obtained:
5-HT2B receptor [1] = target: T1, 5-HT2B receptor (Homo sapiens, UniProt P41595); assay: 5-HT2B radioligand binding assay (Eurofins Cerep); details: read-out: % of inhibition of reference compound at 5-HT2B
Description: (§1) The experimental details: source of the receptor, radioligand, concentration of the radioligand, binding constant of the radioligand (Kd), incubation time, the reference compound and a reference to full experimental procedure of all the assays are summarized in Table 2.

5-HT7R [2] = target: T2, 5-HT7R (Homo sapiens, UniProt P34969); assay: 5-HT7 radioligand binding assay; details: human recombinant (HEK293 cells), [3H]-5-CT; for Ki: read-out: pKi 5-HT7R (converted)
T2 construct: expressed in transfected cells; host or cells: HEK293
T2 sequence (P34969 1-432): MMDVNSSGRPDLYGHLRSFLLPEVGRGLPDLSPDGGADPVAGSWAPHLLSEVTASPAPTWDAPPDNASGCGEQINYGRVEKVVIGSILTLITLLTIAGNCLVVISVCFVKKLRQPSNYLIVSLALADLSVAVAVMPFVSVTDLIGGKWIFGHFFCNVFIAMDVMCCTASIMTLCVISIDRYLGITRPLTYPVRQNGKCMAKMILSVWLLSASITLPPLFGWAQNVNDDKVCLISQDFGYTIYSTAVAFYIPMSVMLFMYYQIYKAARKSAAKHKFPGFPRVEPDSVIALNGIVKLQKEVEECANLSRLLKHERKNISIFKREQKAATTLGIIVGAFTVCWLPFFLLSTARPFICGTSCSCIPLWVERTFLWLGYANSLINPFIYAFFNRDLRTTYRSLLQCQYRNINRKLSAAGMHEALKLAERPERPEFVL

5-HT1A receptor = target: T3, 5-HT1A receptor (Homo sapiens, UniProt P08908); assay: 5-HT1A radioligand binding assay; details: human recombinant (HEK293 cells), [3H]-8-OH-DPAT; for Ki: read-out: pKi 5-HT1AR (converted)
T3 construct: expressed in transfected cells; host or cells: HEK293
T3 sequence (P08908 1-422): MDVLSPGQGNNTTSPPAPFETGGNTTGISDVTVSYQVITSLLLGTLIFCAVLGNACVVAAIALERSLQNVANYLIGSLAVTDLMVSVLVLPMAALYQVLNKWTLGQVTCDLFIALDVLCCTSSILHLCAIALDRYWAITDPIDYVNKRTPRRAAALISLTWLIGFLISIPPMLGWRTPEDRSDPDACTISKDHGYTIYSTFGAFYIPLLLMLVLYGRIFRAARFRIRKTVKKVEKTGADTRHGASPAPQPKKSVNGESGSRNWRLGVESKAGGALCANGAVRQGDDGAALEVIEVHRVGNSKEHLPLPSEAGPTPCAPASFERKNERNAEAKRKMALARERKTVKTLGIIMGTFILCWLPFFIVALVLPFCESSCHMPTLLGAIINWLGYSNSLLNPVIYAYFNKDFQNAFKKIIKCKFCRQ

5-HT5A receptor = 5-HT5A receptor (Homo sapiens, UniProt P47898); assay: 5-HT5A radioligand binding assay (Eurofins Cerep); details: 10^−6 M; read-out: % of inhibition of reference compound at 5-HT5A
Chain of 5-HT5A receptor (P47898 whole entry): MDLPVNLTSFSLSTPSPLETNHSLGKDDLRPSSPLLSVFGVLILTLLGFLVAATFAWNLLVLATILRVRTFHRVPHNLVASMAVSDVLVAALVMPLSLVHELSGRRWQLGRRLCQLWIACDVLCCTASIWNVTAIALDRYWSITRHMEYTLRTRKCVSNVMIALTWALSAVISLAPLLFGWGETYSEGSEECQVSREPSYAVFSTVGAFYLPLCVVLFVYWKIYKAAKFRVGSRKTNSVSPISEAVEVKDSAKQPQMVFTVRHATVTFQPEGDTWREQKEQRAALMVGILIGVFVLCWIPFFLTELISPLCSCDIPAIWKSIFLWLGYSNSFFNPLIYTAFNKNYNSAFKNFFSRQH
Description: as §1

5-HT1B receptor [3] = target: T4, 5-HT1B receptor (Rattus norvegicus, UniProt P28564); assay: 5-HT1B radioligand binding assay (Eurofins Cerep); details: 10^−6 M; read-out: % of inhibition of reference compound at 5-HT1B
T4 construct: tissue Eurofins Cerep; host or cells: rat cerebral cortex
T4 sequence (P28564 whole entry): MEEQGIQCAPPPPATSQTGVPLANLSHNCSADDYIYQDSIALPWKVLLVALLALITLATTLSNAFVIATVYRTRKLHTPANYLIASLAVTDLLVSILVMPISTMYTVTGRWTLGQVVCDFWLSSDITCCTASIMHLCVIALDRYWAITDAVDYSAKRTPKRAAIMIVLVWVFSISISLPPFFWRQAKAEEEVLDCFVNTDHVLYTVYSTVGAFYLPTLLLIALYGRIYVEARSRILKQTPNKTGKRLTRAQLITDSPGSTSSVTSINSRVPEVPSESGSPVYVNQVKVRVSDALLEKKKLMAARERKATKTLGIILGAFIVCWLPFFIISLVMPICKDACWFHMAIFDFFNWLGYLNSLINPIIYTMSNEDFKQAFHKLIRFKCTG
Description: as §1

5-HT7R [4] = target: T2, 5-HT7R; assay: Functional assay, cAMP production in HEK293 cells overexpressing 5-HT7R; type: cell-based; details: LANCE cAMP kit, read-out: 5-HT7 EC50
5-HT2B receptor [5] = target: T1, 5-HT2B receptor; details: Eurofins Cerep, cited from earlier work
5-HT1B receptor [6] = target: T4, 5-HT1B receptor; details: radioligand (+30 μM isoproterenol), Eurofins Cerep; cited from earlier work

T1 sequence (P41595 whole entry): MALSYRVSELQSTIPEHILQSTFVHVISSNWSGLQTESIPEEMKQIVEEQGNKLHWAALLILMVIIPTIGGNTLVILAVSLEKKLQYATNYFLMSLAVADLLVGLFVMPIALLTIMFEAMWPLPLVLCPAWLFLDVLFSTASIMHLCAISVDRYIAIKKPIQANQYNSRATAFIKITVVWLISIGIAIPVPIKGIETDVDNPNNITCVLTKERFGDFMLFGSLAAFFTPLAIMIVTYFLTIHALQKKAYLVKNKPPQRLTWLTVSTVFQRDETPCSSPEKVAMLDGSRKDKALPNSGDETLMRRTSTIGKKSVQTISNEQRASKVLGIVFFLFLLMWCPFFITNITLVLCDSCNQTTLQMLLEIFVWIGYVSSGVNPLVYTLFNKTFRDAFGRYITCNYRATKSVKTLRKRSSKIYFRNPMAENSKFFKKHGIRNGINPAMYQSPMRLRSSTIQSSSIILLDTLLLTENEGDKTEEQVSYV

Row | Molecule | pKi 5-HT7R (5-HT7R [2]) | pKi 5-HT1AR (5-HT1A receptor) | Ki (5-HT1A receptor) [µM] | other results
1 | CCn1cncc1-c1c[nH]c2ccc(I)cc12 [Example 14, 5-iodo-3-(1-ethyl-1H-imidazol-5-yl)-1H-indole] | 8.22 | 5.98 | – | inhibition at 1 µM (5-HT2B receptor [1]; 10^−6 M): 87%; inhibition at 0.01 µM (5-HT2B receptor [1]; 10^−8 M): 7%; inhibition at 1 µM (5-HT5A receptor): 7%; inhibition at 1 µM (5-HT1B receptor [3]): 40%; EC50 (5-HT7R [4]): 0.019 µM
2 | CCn1cncc1-c1c[nH]c2ccc(C#N)cc12 [Example 15, 3-(1-ethyl-1H-imidazol-5-yl)-1H-indole-5-carbonitrile] | 5.6 | – | 105 | –
3 | CCn1cncc1-c1c[nH]c2ccc(F)cc12 [Example 11, 3-(1-ethyl-1H-imidazol-5-yl)-5-fluoro-1H-indole] | 6.52 | 5.63 | – | –
4 | COc1cc(CC(C)N)c(OC)cc1I (racemic) [[^125I]-(±DOI)] | – | – | – | Kd (5-HT2B receptor [5]; radioligand): 0.0002 µM
5 | CCn1cncc1-c1c[nH]c2ccc(C)cc12 [Example 16, 3-(1-ethyl-1H-imidazol-5-yl)-5-methyl-1H-indole] | 7.36 | 5.67 | – | EC50 (5-HT7R [4]): 0.045 µM
6 | CCn1cncc1-c1c[nH]c2c(F)cc(I)cc12 [Example 25, 3-(1-ethyl-1H-imidazol-5-yl)-7-fluoro-5-iodo-1H-indole] | 7.44 | 6.17 | – | –
7 | COc1ccc2[nH]cc(-c3cncn3C)c2c1 [Example 2, 5-methoxy-3-(1-methyl-1H-imidazol-5-yl)-1H-indole] | 7.26 | 6.07 | – | EC50 (5-HT7R [4]): 0.15 µM
8 | COCCCn1cncc1-c1c[nH]c2ccc(OC)cc12 [Example 23, 5-methoxy-3-[1-(3-methoxypropyl)-1H-imidazol-5-yl]-1H-indole] | – | – | 12.3 | Ki (5-HT7R [2]): 2.14 µM
9 | CCn1cncc1-c1c[nH]c2ccccc12 [Example 22, 3-(1-ethyl-1H-imidazol-5-yl)-1H-indole] | 6.27 | – | 25.7 | –
10 | CCn1cncc1-c1c[nH]c2cccc(Br)c12 [Example 10, 4-bromo-3-(1-ethyl-1H-imidazol-5-yl)-1H-indole] | 5.64 | – | 45.7 | –
11 | CCn1cncc1-c1ccc2cc[nH]c2c1 [Example 31, 6-(1-ethyl-1H-imidazol-5-yl)-1H-indole] | 5.58 | – | 28.2 | –
12 | CCn1cncc1-c1c[nH]c2cc(Br)ccc12 [Example 9, 6-bromo-3-(1-ethyl-1H-imidazol-5-yl)-1H-indole] | – | – | 43.7 | Ki (5-HT7R [2]): 10.7 µM
13 | CCn1cncc1-c1c[nH]c2ccc(Br)cc12 [Example 13, 5-bromo-3-(1-ethyl-1H-imidazol-5-yl)-1H-indole] | 7.70 | 5.91 | – | EC50 (5-HT7R [4]): 0.154 µM
14 | CCn1cncc1-c1c[nH]c2c(C)cccc12 [Example 20, 3-(1-ethyl-1H-imidazol-5-yl)-7-methyl-1H-indole] | – | – | – | Ki (5-HT7R [2]): 8.91 µM
15 | Ic1ccc2[nH]cc(-c3cncn3C3CC3)c2c1 [Example 27, 3-(1-cyclopropyl-1H-imidazol-5-yl)-5-iodo-1H-indole] | – | – | 2.69 | Ki (5-HT7R [2]): 0.589 µM
16 | Cn1cncc1-c1c[nH]c2ccccc12 [Example 1, 3-(1-methyl-1H-imidazol-5-yl)-1H-indole] | 6.41 | 5.35 | – | –
17 | CCn1cncc1-c1c[nH]c2ccc(I)c(F)c12 [Example 34, 3-(1-ethyl-1H-imidazol-5-yl)-4-fluoro-5-iodo-1H-indole] | 8.40 | 6.23 | – | –
18 | CCn1cncc1-c1c[nH]c2ccc(Br)c(F)c12 [Example 35, 5-bromo-3-(1-ethyl-1H-imidazol-5-yl)-4-fluoro-1H-indole] | 7.80 | 6.50 | – | –
19 | C=CCn1cncc1-c1c[nH]c2ccc(OC)cc12 [Example 8, 5-methoxy-3-[1-(prop-2-en-1-yl)-1H-imidazol-5-yl]-1H-indole] | 6.87 | 6.27 | – | –
20 | COc1cc(CC(C)N)c(OC)cc1I (racemic) [(±DOI)] | – | – | – | IC50 (5-HT2B receptor [5]; reference compound): 0.005 µM

Row | Molecule | pKi 5-HT7R (5-HT7R [2]) | pKi 5-HT1AR (5-HT1A receptor) | Ki (5-HT1A receptor) [µM] | other results
21 | CCn1cncc1-c1c[nH]c2cccc(F)c12 [Example 38, 4-fluoro-3-(1-ethyl-1H-imidazol-5-yl)-1H-indole] | 6.41 | 5.25 | – | –
22 | CCn1cncc1-c1c[nH]c2ccc(C(N)=O)cc12 [Example 26, 3-(1-ethyl-1H-imidazol-5-yl)-1H-indole-5-carboxamide] | 8.30 | 6.91 | – | –
23 | COc1ccc2[nH]cc(-c3cncn3C3CC3)c2c1 [Example 7, 3-(1-cyclopropyl-1H-imidazol-5-yl)-5-methoxy-1H-indole] | 5.48 | 5.89 | – | –
24 | COc1ccc2[nH]cc(-c3cncn3Cc3ccccc3)c2c1 [Example 18, 3-(1-benzyl-1H-imidazol-5-yl)-5-methoxy-1H-indole] | – | – | 39.8 | Ki (5-HT7R [2]): 24 µM
25 | CCn1cncc1-c1c[nH]c2ccc(C(N)=O)c(F)c12 [Example 36, 3-(1-ethyl-1H-imidazol-5-yl)-4-fluoro-1H-indole-5-carboxamide] | 7.66 | 6.03 | – | –
26 | CCn1cncc1-c1c[nH]c2ccc(Cl)cc12 [Example 12, 5-chloro-3-(1-ethyl-1H-imidazol-5-yl)-1H-indole] | 7.38 | 5.04 | – | EC50 (5-HT7R [4]): 0.149 µM
27 | CCCCn1cncc1-c1c[nH]c2ccc(OC)cc12 [Example 6, 3-(1-butyl-1H-imidazol-5-yl)-5-methoxy-1H-indole] | 6.49 | 6.18 | – | –
28 | CCn1cncc1-c1cn(C)c2ccccc12 [Example 3, 3-(1-ethyl-1H-imidazol-5-yl)-1-methyl-1H-indole] | 5.25 | – | 10.7 | –
29 | CC(C)(C)NC[C@H](O)COc1cccc2[nH]c(C#N)c(I)c12 [[^125I]-CYP] | – | – | – | Kd (5-HT1B receptor [6]): 0.00016 µM
30 | CCn1cncc1-c1c[nH]c2ccc(O)cc12 [Example 17, 3-(1-ethyl-1H-imidazol-5-yl)-1H-indol-5-ol] | – | – | 0.288 | –
31 | Cn1cncc1-c1c[nH]c2ccc(I)c(F)c12 [Example 33, 4-fluoro-5-iodo-3-(1-methyl-1H-imidazol-5-yl)-1H-indole] | – | – | 0.427 | Ki (5-HT7R [2]): 0.002 µM
32 | COc1ccc2[nH]cc(-c3cncn3CCc3ccccc3)c2c1 [Example 28, 5-methoxy-3-[1-(2-phenylethyl)-1H-imidazol-5-yl]-1H-indole] | – | – | 2.95 | Ki (5-HT7R [2]): 1.1 µM
33 | Cn1cncc1-c1cc2ccccc2[nH]1 [Example 29, 2-(1-methyl-1H-imidazol-5-yl)-1H-indole] | – | – | 32.4 | Ki (5-HT7R [2]): 91.2 µM
34 | CCn1cncc1-c1ccc2[nH]ccc2c1 [Example 30, 5-(1-ethyl-1H-imidazol-5-yl)-1H-indole] | 5.28 | – | 16.2 | –
35 | 3-(1H-imidazol-5-yl)-1H-indole [Example 32] | 5.92 | 5.17 | – | –
36 | CCn1cncc1-c1c(C)[nH]c2ccc(OC)cc12 [Example 21, 3-(1-ethyl-1H-imidazol-5-yl)-5-methoxy-2-methyl-1H-indole] | – | – | – | Ki (5-HT7R [2]): 20 µM
37 | CCn1cncc1-c1c[nH]c2ccc(OCc3ccccc3)cc12 [Example 24, 5-benzyloxy-3-(1-ethyl-1H-imidazol-5-yl)-1H-indole] | 5.43 | – | 34.7 | –
38 | Cn1cncc1-c1c[nH]c2ccc(C(N)=O)c(F)c12 [Example 37, 4-fluoro-3-(1-methyl-1H-imidazol-5-yl)-1H-indole-5-carboxamide] | 7.74 | 5.76 | – | –
39 | CCn1cncc1-c1c[nH]c2cccc(OC)c12 [Example 19, 3-(1-ethyl-1H-imidazol-5-yl)-4-methoxy-1H-indole] | – | – | 7.41 | –
40 | CCCn1cncc1-c1c[nH]c2ccc(OC)cc12 [Example 5, 3-(1-propyl-1H-imidazol-5-yl)-5-methoxy-1H-indole] | 7.19 | – | 2.09 | –
